{"source": "patent US9115101B2", "about": "(Genentech, Inc., priority 2012, dated 2015)", "data": [{"target": "T1, RORc ligand binding domain (Homo sapiens, UniProt P51449)", "T1 construct": "host or cells: E. coli", "T1 sequence (P51449 269-508 limits assumed)": "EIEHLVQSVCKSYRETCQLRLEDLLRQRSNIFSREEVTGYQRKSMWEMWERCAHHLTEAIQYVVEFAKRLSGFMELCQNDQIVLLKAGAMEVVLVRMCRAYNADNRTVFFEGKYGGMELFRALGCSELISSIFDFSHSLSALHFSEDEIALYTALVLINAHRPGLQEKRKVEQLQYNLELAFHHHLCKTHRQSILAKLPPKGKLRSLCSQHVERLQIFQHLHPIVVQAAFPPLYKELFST", "test": "In Vitro RORc Ligand Binding Assay (25-[3H]hydroxycholesterol radioligand filtration)", "conditions": "RORc IC50", "units": {"IC50": "µM"}, "values": [{"compound": "O=S1(=O)[C@@H](c2ccccc2)CCC2(CC2)N1Cc1ccc(N2CCC(n3cnnc3)CC2)cc1F", "note": "[Example 415, (R)-4-[2-Fluoro-4-(4-[1,2,4]triazol-4-yl-piperidin-1-yl)-benzyl]-6-phenyl-5-thia-4-aza-spiro[2.5]octane 5,5-dioxide]", "IC50": 0.037}, {"compound": "O=S1(=O)[C@H](c2ccccc2)CCC2(CC2)N1Cc1ccc(N2CCC(n3cnnc3)CC2)cc1F", "note": "[Example 421, (S)-4-[2-Fluoro-4-(4-[1,2,4]triazol-4-yl-piperidin-1-yl)-benzyl]-6-phenyl-5-thia-4-aza-spiro[2.5]octane 5,5-dioxide]", "IC50": 0.289}]}, {"target": "T1, RORc ligand binding domain", "test": "In Vitro RORc Ligand Binding Assay (25-[3H]hydroxycholesterol radioligand filtration)", "conditions": "read-out: RORc IC50", "units": {"IC50": "µM"}, "values": [{"compound": "CC(=O)N1CCN(c2ccc(CN3[C@@H](C)CCC(c4ccccc4)S3(=O)=O)c(F)c2)C[C@H]1C(=O)NCCO", "note": "(stereo partly drawn) [Example 399, (S)-1-Acetyl-4-[3-fluoro-4-((3S)-methyl-1,1-dioxo-6-phenyl-[1,2]thiazinan-2-ylmethyl)-phenyl]-piperazine-2-carboxylic acid (2-hydroxy-ethyl)-amide]", "IC50": 1.59}, {"compound": "C[C@H]1CCC(c2ccccc2)S(=O)(=O)N1Cc1ccc(N2CCN3C(=O)OCC3C2)cc1F", "note": "(stereo partly drawn) [Example 400, 7-[3-Fluoro-4-((3S)-methyl-1,1-dioxo-6-phenyl-[1,2]thiazinan-2-ylmethyl)-phenyl]-hexahydro-oxazolo[3,4-a]pyrazin-3-one]", "IC50": 0.095}, {"compound": "C[C@H]1CCC(c2ccccc2)S(=O)(=O)N1Cc1ccc(N2CCN3C(=O)CNC(=O)[C@@H]3C2)cc1F", "note": "(stereo partly drawn) [Example 401, (S)-8-[3-Fluoro-4-((3S)-methyl-1,1-dioxo-6-phenyl-[1,2]thiazinan-2-ylmethyl)-phenyl]-hexahydro-pyrazino[1,2-a]pyrazine-1,4-dione]", "IC50": 2.79}, {"compound": "C[C@H]1CCC(c2ccccc2)S(=O)(=O)N1Cc1ccc(N2CCN3C(=O)CN(C)C(=O)[C@@H]3C2)cc1F", "note": "(stereo partly drawn) [Example 402, (S)-8-[3-Fluoro-4-((3S)-methyl-1,1-dioxo-6-phenyl-[1,2]thiazinan-2-ylmethyl)-phenyl]-2-methyl-hexahydro-pyrazino[1,2-a]pyrazine-1,4-dione]", "IC50": 3.54}, {"compound": "C[C@H]1CCC(c2ccccc2)S(=O)(=O)N1Cc1ccc(N2CCn3c(cnc3C(N)=O)C2)cc1F", "note": "(stereo partly drawn) [Example 403, 7-[3-Fluoro-4-((3S)-methyl-1,1-dioxo-6-phenyl-[1,2]thiazinan-2-ylmethyl)-phenyl]-5,6,7,8-tetrahydro-imidazo[1,5-a]pyrazine-3-carboxylic acid amide]", "IC50": 0.346}, {"compound": "C[C@H]1CCC(c2ccccc2)S(=O)(=O)N1Cc1ccc(N2CCn3c(cnc3CO)C2)cc1F", "note": "(stereo partly drawn) [Example 404, {7-[3-Fluoro-4-((3S)-methyl-1,1-dioxo-6-phenyl-[1,2]thiazinan-2-ylmethyl)-phenyl]-5,6,7,8-tetrahydro-imidazo[1,5-a]pyrazin-3-yl}-methanol]", "IC50": 0.504}, {"compound": "CONC(=O)[C@@H]1CN(c2ccc(CN3[C@@H](C)CCC(c4ccccc4)S3(=O)=O)c(F)c2)CCN1C(C)=O", "note": "(stereo partly drawn) [Example 407, (S)-1-Acetyl-4-[3-fluoro-4-((3S)-methyl-1,1-dioxo-6-phenyl-[1,2]thiazinan-2-ylmethyl)-phenyl]-piperazine-2-carboxylic acid methoxy-amide]", "IC50": 0.148}, {"compound": "C[C@H]1CCC(c2ccccc2)S(=O)(=O)N1Cc1ccc(N2CCC(c3cn[nH]c3)CC2)cc1", "note": "(stereo partly drawn) [Example 414, (3S)-Methyl-6-phenyl-2-{4-[4-(1H-pyrazol-4-yl)-piperidin-1-yl]-benzyl}-[1,2]thiazinane 1,1-dioxide]", "IC50": 0.006}, {"compound": "COC(=O)[C@H]1CN(C(C)=O)CCN1c1ccc(CN2[C@@H](C)CCC(c3ccccc3)S2(=O)=O)c(F)c1", "note": "(stereo partly drawn) [Example 416, (R)-4-Acetyl-1-[3-fluoro-4-((3S)-methyl-1,1-dioxo-6-phenyl-[1,2]thiazinan-2-ylmethyl)-phenyl]-piperazine-2-carboxylic acid methyl ester]", "IC50": 0.368}, {"compound": "C[C@H]1CCC(c2ccccc2)S(=O)(=O)N1Cc1ccc(N2CCN3C(=O)COCC3C2)cc1F", "note": "(stereo partly drawn) [Example 417, 8-[3-Fluoro-4-((3S)-methyl-1,1-dioxo-6-phenyl-[1,2]thiazinan-2-ylmethyl)-phenyl]-hexahydro-pyrazino[2,1-c][1,4]oxazin-4-one]", "IC50": 0.231}, {"compound": "C[C@H]1CCC(c2ccccc2)S(=O)(=O)N1Cc1ccc(N2CCN3C(=O)CC[C@H]3C2)cc1F", "note": "(stereo partly drawn) [Example 419, (S)-2-[3-Fluoro-4-((3S)-methyl-1,1-dioxo-6-phenyl-[1,2]thiazinan-2-ylmethyl)-phenyl]-hexahydro-pyrrolo[1,2-a]pyrazin-6-one]", "IC50": 0.032}, {"compound": "C[C@H]1CCC(c2ccccc2)S(=O)(=O)N1Cc1ccc(N2CCC(n3cnnn3)CC2)cc1", "note": "(stereo partly drawn) [Example 422, (3S)-Methyl-6-phenyl-2-[4-(4-tetrazol-1-yl-piperidin-1-yl)-benzyl]-[1,2]thiazinane 1,1-dioxide]", "IC50": 0.07}, {"compound": "C[C@H]1CCC(c2ccccc2)S(=O)(=O)N1Cc1ccc(N2CCC(n3ncnn3)CC2)cc1", "note": "(stereo partly drawn) [Example 423, (3S)-Methyl-6-phenyl-2-[4-(4-tetrazol-2-yl-piperidin-1-yl)-benzyl]-[1,2]thiazinane 1,1-dioxide]", "IC50": 0.177}, {"compound": "C[C@H]1CCC(c2ccccc2)S(=O)(=O)N1Cc1ccc(N2CC3(CC(n4cnnc4)C3)C2)cc1F", "note": "(stereo partly drawn) [Example 424, 2-[3-Fluoro-4-((3S)-methyl-1,1-dioxo-6-phenyl-[1,2]thiazinan-2-ylmethyl)-phenyl]-6-[1,2,4]triazol-4-yl-2-aza-spiro[3.3]heptane]", "IC50": 0.427}, {"compound": "C[C@H]1CCC(c2ccccc2)S(=O)(=O)N1Cc1ccc(N2CC3(CC(n4cnnc4)C3)C2)cc1F", "note": "(stereo partly drawn) [Example 425, 2-[3-Fluoro-4-((3S)-methyl-1,1-dioxo-6-phenyl-[1,2]thiazinan-2-ylmethyl)-phenyl]-6-[1,2,4]triazol-4-yl-2-aza-spiro[3.3]heptane]", "IC50": 1.01}, {"compound": "COC(=O)C1(n2cnnc2)CCN(c2ccc(CN3[C@@H](C)CCC(c4ccccc4)S3(=O)=O)c(F)c2)CC1", "note": "(stereo partly drawn) [Example 426, 1-[3-Fluoro-4-((3S)-methyl-1,1-dioxo-6-phenyl-[1,2]thiazinan-2-ylmethyl)-phenyl]-4-[1,2,4]triazol-4-yl-piperidine-4-carboxylic acid methyl ester]", "IC50": 0.453}, {"compound": "COC(=O)C1(n2cnnc2)CCN(c2ccc(CN3[C@@H](C)CCC(c4ccccc4)S3(=O)=O)c(F)c2)CC1", "note": "(stereo partly drawn) [Example 427, 1-[3-Fluoro-4-((3S)-methyl-1,1-dioxo-6-phenyl-[1,2]thiazinan-2-ylmethyl)-phenyl]-4-[1,2,4]triazol-4-yl-piperidine-4-carboxylic acid methyl ester]", "IC50": 0.447}, {"compound": "C[C@H]1CCC(c2ccccc2)S(=O)(=O)N1Cc1ccc(N2CC(n3cnnc3)C2)cc1F", "note": "(stereo partly drawn) [Example 428, 2-[2-Fluoro-4-(3-[1,2,4]triazol-4-yl-azetidin-1-yl)-benzyl]-(3S)-methyl-6-phenyl-[1,2]thiazinane 1,1-dioxide]", "IC50": 0.088}, {"compound": "C[C@H]1CCC(c2ccccc2)S(=O)(=O)N1Cc1ccc(OCC2CCOC2)cc1", "note": "(stereo partly drawn) [Example 430, (3S)-Methyl-6-phenyl-2-[4-(tetrahydro-furan-3-ylmethoxy)-benzyl]-[1,2]thiazinane 1,1-dioxide]", "IC50": 0.559}, {"compound": "C[C@H]1CCC(c2ccccc2)S(=O)(=O)N1Cc1ccc(OCC2CC2)cc1", "note": "(stereo partly drawn) [Example 431, 2-(4-Cyclopropylmethoxy-benzyl)-(3S)-methyl-6-phenyl-[1,2]thiazinane 1,1-dioxide]", "IC50": 0.641}, {"compound": "C[C@H]1CCC(c2ccccc2)S(=O)(=O)N1Cc1ccc(OC2CCOCC2)cc1", "note": "(stereo partly drawn) [Example 432, (3S)-Methyl-6-phenyl-2-[4-(tetrahydro-pyran-4-yloxy)-benzyl]-[1,2]thiazinane 1,1-dioxide]", "IC50": 1.11}, {"compound": "CC(=O)N1CCN(c2ccc(CN3[C@@H](C)CCC(c4ccccc4)S3(=O)=O)c(F)c2)[C@@H](C(N)=O)C1", "note": "(stereo partly drawn) [Example 433, (R)-4-Acetyl-1-[3-fluoro-4-((3S)-methyl-1,1-dioxo-6-phenyl-[1,2]thiazinan-2-ylmethyl)-phenyl]-piperazine-2-carboxylic acid amide]", "IC50": 0.228}, {"compound": "CC(=O)N1CCN(c2ccc(CN3[C@@H](C)CCC(c4ccccc4)S3(=O)=O)c(F)c2)[C@@H](C(=O)O)C1", "note": "(stereo partly drawn) [Example 434, (R)-4-Acetyl-1-[3-fluoro-4-((3S)-methyl-1,1-dioxo-6-phenyl-[1,2]thiazinan-2-ylmethyl)-phenyl]-piperazine-2-carboxylic acid]", "IC50": 1.13}, {"compound": "CNC(=O)[C@H]1CN(C(C)=O)CCN1c1ccc(CN2[C@@H](C)CCC(c3ccccc3)S2(=O)=O)c(F)c1", "note": "(stereo partly drawn) [Example 435, (R)-4-Acetyl-1-[3-fluoro-4-((3S)-methyl-1,1-dioxo-6-phenyl-[1,2]thiazinan-2-ylmethyl)-phenyl]-piperazine-2-carboxylic acid methylamide]", "IC50": 0.244}, {"compound": "C[C@H]1CCC(c2ccccc2)S(=O)(=O)N1Cc1ccc(OCC2CCOCC2)cc1", "note": "(stereo partly drawn) [Example 436, (3S)-Methyl-6-phenyl-2-[4-(tetrahydro-pyran-4-ylmethoxy)-benzyl]-[1,2]thiazinane 1,1-dioxide]", "IC50": 0.086}, {"compound": "CC(Oc1ccc(CN2[C@@H](C)CCC(c3ccccc3)S2(=O)=O)cc1)C1CCOCC1", "note": "(stereo partly drawn) [Example 437, (3S)-Methyl-6-phenyl-2-{4-[1-(tetrahydro-pyran-4-yl)-ethoxy]-benzyl}-[1,2]thiazinane 1,1-dioxide]", "IC50": 0.048}, {"compound": "C[C@H]1CCC(c2ccccc2)S(=O)(=O)N1Cc1ccc(OCCN2CCOCC2)cc1", "note": "(stereo partly drawn) [Example 438, 4-{2-[4-((3S)-Methyl-1,1-dioxo-6-phenyl-[1,2]thiazinan-2-ylmethyl)-phenoxy]-ethyl}-morpholine]", "IC50": 0.665}, {"compound": "C[C@H]1CCC(c2ccccc2)S(=O)(=O)N1Cc1ccc(OCCN2CCCC2=O)cc1", "note": "(stereo partly drawn) [Example 439, 1-{2-[4-((3S)-Methyl-1,1-dioxo-6-phenyl-[1,2]thiazinan-2-ylmethyl)-phenoxy]-ethyl}-pyrrolidin-2-one]", "IC50": 0.325}]}]}
